Results from US12240846B2 (Enliven Inc., priority 2020, dated 2025).

Experiments:
K562 cells = assay: K562 cell proliferation assay (CellTiter-Glo); assay type: cell-based; conditions: Homo sapiens, K562 cell viability, 72 hours, read-out: Cell Line (IC50, nM) K562
ABL1 = target: T1, ABL1 (Homo sapiens, UniProt P00519); assay: Luminescence-based ABL kinase assay (300 μM ATP), ADP-Glo; assay type: biochemical
T1 construct: purchased Carna Biosciences
Excerpt: Compounds were serially diluted in DMSO. […] Luminescence signal positively correlates with kinase activity.

[1] = system: pCRKL in Ba/F3 ABL1 (T315I) cells; assay: pCRKL ELISA assay in Ba/F3 ABL1 (T315I) cells; assay type: cell-based; conditions: Mus musculus, BaF3, 1.5 h, 90 minutes incubation, read-out: pCRKL ELISA, Cell Line IC50 (nM) Ba/F3 ABL1 (T315I)
Experimental: (§1) K562 or Ba/F3 ABL T315I cells (2.0*10^5 cells/100 μl/well) were seeded in 96 well (Corning, cat #3799). Compounds were dissolved in DMSO, serially diluted in DMSO and then were added, mixed, and incubated for 90 minutes at 37° C., 5% CO2. Following the 90-minute incubation, plates were centrifuged for 5 min at 3000 RPM and supernatant was removed from each well. Cells were washed 3 times with 150 μl PBS prior to addition of 100 μl cell RIPA lysis buffer (Boston BioProducts, cat #BP-115D) supplied with 1× complete ULTRA cocktail inhibitor (Roche, 05892791001) and 1× PhosSTOP Phosphatase Inhibitor Cocktail Tablets (Roche, 04906837001). Cells were incubated with lysis buffer for 1 hour at 4° C. prior to storage at −80C.
(§2) A capture antibody able to detect phosphorylated and non-phosphorylated CRKL (R&D Systems, cat #AF5127) was added to Meso Scale Discovery (MSD) standard bind plates (MSD, cat #L15XA-3) at 5 ug/mL and incubated at 4° C. overnight. The next day, plates were washed with PBS+ 0.05% Tween20 (PBST) and 150 μl of 5% BSA blocking solution was added for 1 hour at room temperature with shaking. Plates were washed with PBST. Lysates were thawed and 30 μl of lysate was added to the MSD plates and incubated for 2 hours at room temperature with shaking. MSD plates were washed with PBST and 30 μl of a detection antibody that binds phosphorylated pCRKL (R&D Systems, cat #MAB6910) was added at 1 ug/mL to each well. Plates were incubated for 1 hour at room temperature with shaking. Plates were washed with PBST prior to addition of 30 μl of a sulfo tagged goat anti mouse detection antibody (MSD cat #R32AC-1). Plates were incubated for 1 hour at room temperature with shaking. Plates were washed with PBST prior to addition of 150 ul of 1×MSD read buffer T (MSD, cat #R92TC-2). Electrochemiluminescence (ECLU) was read on an MSD plate reader (Meso Scale Discovery). The remaining activity by calculated as follows: % Relative activity=100× (ELCUsample−ECLULC)/(ECLUHC−ECLULC). The low and high controls (LC/HC) are generated from lysate from wells without cells or with cells treated with 0.1% DMSO, respectively. IC50 values were calculated using XLFit software using a nonlinear regression model with a sigmoidal dose response and are shown in Table 4 and Table 5 below.

ABL1 (T315I) = ABL1 (T315I) (Homo sapiens, UniProt P00519, T315I); assay: Luminescence-based ABL kinase assay (300 μM ATP), ADP-Glo; assay type: biochemical
HL60 cells = assay: HL60 cell proliferation assay (CellTiter-Glo); assay type: cell-based; conditions: Homo sapiens, HL-60, HL60 cell viability, 72 hours, read-out: Cell Line (IC50, nM) HL60
pCRKL in K562 cells = assay: pCRKL ELISA assay in K562 cells; assay type: cell-based; conditions: Homo sapiens, 1.5 h, 90 minutes incubation, read-out: pCRKL ELISA, Cell Line IC50 (nM) K562
Experimental: as §1, §2

SMILES | IC50 (K562 cells) [nM] | IC50 (ABL1) [nM] | IC50 [1] [nM] | IC50 (ABL1 (T315I)) [nM] | IC50 (HL60 cells) [nM] | IC50 (pCRKL in K562 cells) [nM]
COc1ncc(F)cc1-c1cc2cc(NC(=O)[C@@H]3C[C@@H]3F)ncc2n1C [Compound 76, (1S,2S)-2-fluoro-N-[2-(5-fluoro-2-methoxypyridin-3-yl)-1-methylpyrrolo[2,3-c]pyridin-5-yl]cyclopropane-1-carboxamide] | 200 | 46.7 | 194 | 55.4 | 6240 | 326
COc1cc(C)nc(OC)c1-c1cc2cc(NC(=O)[C@@H]3C[C@@H]3F)ncc2n1C [Compound 98, (1S,2S)-N-(2-(2,4-dimethoxy-6-methylpyridin-3-yl)-1-methyl-1H-pyrrolo[2,3-c]pyridin-5-yl)-2-fluorocyclopropane-1-carboxamide] | 63 | 11.6 | 253 | 38.8 | 605 | 99.4
COc1nc(N)nc(OC)c1-c1cc2cc(NC(=O)[C@@H]3C[C@@H]3F)ncc2n1C [Compound 103, (1S,2S)-N-(2-(2-amino-4,6-dimethoxypyrimidin-5-yl)-1-methyl-1H-pyrrolo[2,3-c]pyridin-5-yl)-2-fluorocyclopropane-1-carboxamide] | 17.7 | 3.98 | 172 | 7.85 | 385 | 35.5
